In PMC2662044 (European journal of medicinal chemistry, 2008):
Entries after “also recorded” stand apart in the source; their conditions may differ. Read-outs that look alike come from different tables or passages of the source.

Key:
Kv1.5 [1] = molecular target: T1, Kv1.5 (Homo sapiens, UniProt P22460); settings: Table 1, cited from earlier work; for IC50: read-out: IC50 value Kv1.5
Kv1.3 [2] = molecular target: T2, Kv1.3 (Mus musculus, UniProt P16390); type: cell-based; settings: for IC50: IC50 Kv1.3, text; for Effect on Kv1.3: concentration of 10 µM where stated
Kv1.5 [3] = molecular target: T1, Kv1.5; assay: Kv1.5 inhibition, whole-cell patch-clamp, currents recorded from MEL-C88 cells; type: cell-based; settings: for Selectivity IC50 (Kv1.5)/IC50 (Kv1.3): Table 1
[4] = HPLC studies on stability in DMSO stock and Ringer solution; type: physicochemical; settings: data not shown
[5] = cited from earlier work
[6] = cited from earlier work; remark: listed apart in the source
[7] = system: oxazolone-induced allergic contact dermatitis; settings: rat models; cited from earlier work
type-1 diabetes = settings: rat models; cited from earlier work
[8] = administration for 28 days or 6 months, rats or rhesus macaques; cited from earlier work
Kv1.3 [9] = molecular target: T2, Kv1.3; settings: read-out: IC50 Kv1.3; cited from earlier work

T2 sequence (P16390 whole entry): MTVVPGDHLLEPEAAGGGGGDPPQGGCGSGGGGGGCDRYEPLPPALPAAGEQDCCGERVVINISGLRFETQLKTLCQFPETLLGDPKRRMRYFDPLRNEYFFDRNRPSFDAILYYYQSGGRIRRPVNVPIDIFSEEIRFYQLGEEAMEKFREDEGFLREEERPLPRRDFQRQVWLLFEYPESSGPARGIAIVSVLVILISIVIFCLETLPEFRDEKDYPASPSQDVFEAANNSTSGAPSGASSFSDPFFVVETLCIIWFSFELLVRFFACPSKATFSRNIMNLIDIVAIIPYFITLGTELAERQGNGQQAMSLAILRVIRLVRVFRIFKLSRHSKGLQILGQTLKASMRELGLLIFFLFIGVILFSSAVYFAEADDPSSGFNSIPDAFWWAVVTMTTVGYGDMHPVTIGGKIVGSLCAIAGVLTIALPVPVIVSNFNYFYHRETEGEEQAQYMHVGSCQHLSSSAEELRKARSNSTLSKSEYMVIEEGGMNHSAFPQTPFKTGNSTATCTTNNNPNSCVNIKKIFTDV
T1 sequence (P22460 whole entry): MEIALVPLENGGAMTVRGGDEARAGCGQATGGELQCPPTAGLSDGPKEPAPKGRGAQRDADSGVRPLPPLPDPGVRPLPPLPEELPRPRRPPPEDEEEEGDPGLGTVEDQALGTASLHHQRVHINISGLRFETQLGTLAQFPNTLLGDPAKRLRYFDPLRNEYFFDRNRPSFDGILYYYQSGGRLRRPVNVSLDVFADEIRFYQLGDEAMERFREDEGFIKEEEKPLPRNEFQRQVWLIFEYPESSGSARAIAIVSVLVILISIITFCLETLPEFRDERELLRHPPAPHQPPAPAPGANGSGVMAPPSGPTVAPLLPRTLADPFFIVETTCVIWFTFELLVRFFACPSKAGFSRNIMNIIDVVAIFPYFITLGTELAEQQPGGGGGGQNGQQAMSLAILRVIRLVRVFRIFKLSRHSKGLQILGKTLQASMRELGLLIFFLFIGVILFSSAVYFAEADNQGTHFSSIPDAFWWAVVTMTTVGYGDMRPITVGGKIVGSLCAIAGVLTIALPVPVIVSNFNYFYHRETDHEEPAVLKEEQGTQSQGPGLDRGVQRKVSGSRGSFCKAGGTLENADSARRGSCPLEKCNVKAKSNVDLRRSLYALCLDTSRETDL

SMILES: COc1c2ccoc2cc2oc(=O)ccc12 [Compound 5-MOP, 5-methoxypsoralen]
- Selectivity IC50 (Kv1.5)/IC50 (Kv1.3) (Kv1.5 [1]): 1.75
- IC50 (Kv1.5 [1]): 177000 nM

SMILES: c1ccc(OCCCCOc2ccccc2)cc1 [Compound 15, 1,1'[1,4-Butanediyl(oxy)]bis-benzene]
- IC50 (Kv1.3 [2]): > 10000 nM

SMILES: c1ccc(OCCCCOc2cccc3ccccc23)cc1 [Compound 16, 1-(4-Phenoxybutoxy)naphthalene]
- IC50 (Kv1.3 [2]): > 10000 nM

SMILES: c1ccc(OCCCCOc2ccnc3ccccc23)cc1 [Compound 17, 4-(4-Phenoxybutoxy)quinoline]
- Effect on Kv1.3 (Kv1.3 [2]): ineffective
- IC50 (Kv1.5 [3]): 3500 nM
- Selectivity (IC50 for Kv1.5 divided by the IC50 for Kv1.3) (Kv1.5 [3]): 0.34 fold
- Times more potent on Kv1.5 than on Kv1.3 (Kv1.5 [3]): roughly 3 times
- Selectivity IC50 (Kv1.5)/IC50 (Kv1.3) (Kv1.5 [3]): < 0.35

SMILES: c1ccc(OCCCCOc2ncnc3ccccc23)cc1 [Compound 19, 4-(4-Phenoxybutoxy)quinazoline]
- Effect on Kv1.3 (Kv1.3 [2]): ineffective
- IC50 (Kv1.5 [3]): ~25000 nM

SMILES: O=c1cc(OCCCCOc2ccccc2)c2ccccc2o1 [Compound 21, 4-(4-Phenoxybutoxy)-2H-[1]benzopyran-2-one]
- IC50 (Kv1.5 [3]): 1500 nM
- Selectivity IC50 (Kv1.5)/IC50 (Kv1.3) (Kv1.5 [3]): 1.69

SMILES: COc1c2occc2c(OC)c2c(OCCCCOc3ccccc3)cc(=O)oc12 [Compound 23, 5,8-Dimethoxy-4-(4-phenoxybutoxy)psoralen]
- IC50 (Kv1.5 [3]): 850 nM
- Selectivity IC50 (Kv1.5)/IC50 (Kv1.3) (Kv1.5 [3]): 1.89

SMILES: O=C1c2ccccc2C(=O)c2c(OCCCCOc3ccccc3)cccc21 [Compound 25, 1-(4-Phenoxybutoxy)anthraquinone]
- IC50 (Kv1.5 [3]): 10000 nM
- Selectivity IC50 (Kv1.5)/IC50 (Kv1.3) (Kv1.5 [3]): 1.43

SMILES: c1ccc(OCCCCOc2cc3ccccc3c3ccccc23)cc1 [Compound 26, 9-(4-Phenoxybutoxy)phenanthrene]
- IC50 (Kv1.3 [2]): > 10000 nM

SMILES: COc1cccc2c(=O)c3ccccc3n(CCCCOc3ccccc3)c12 [Compound 28, 9,10-Dihydro-4-methoxy-N-(4-phenoxybutyl)acridin-9-one]
- IC50 (Kv1.5 [3]): 450 nM
- Selectivity IC50 (Kv1.5)/IC50 (Kv1.3) (Kv1.5 [3]): 2.73

SMILES: COc1cc2nc3occc3c(OCCCCOc3ccccc3)c2cc1OC [Compound 34, 6,7-Dimethoxy-4-(4-phenoxybutoxy)furo[2,3-b]quinoline]
- Kinetics of block (mode of Kv1.3 block) (Kv1.3 [2]): block the C-type inactivated state; also recorded: use-dependence
- IC50 (Kv1.5 [3]): 480 nM
- Selectivity IC50 (Kv1.5)/IC50 (Kv1.3) (Kv1.5 [3]): 3.2

SMILES: COc1ccc2c(OCCCCOc3ccccc3)c3ccoc3nc2c1OC [Compound 35, 7,8-Dimethoxy-4-(4-phenoxybutoxy)furo[2,3-b]quinoline]
- Kinetics of block (mode of Kv1.3 block) (Kv1.3 [2]): block the C-type inactivated state; also recorded: use-dependence

SMILES: Cc1cc(=O)c2c(OCCCCOc3ccccc3)c3ccoc3cc2o1 [Compound 36, 7-Methyl-4-(4-phenoxybutoxy)-5H-furo[3,2-g][1]benzopyran-5-one]
- Kinetics of block (mode of Kv1.3 block) (Kv1.3 [2]): block the C-type inactivated state; also recorded: use-dependence
- IC50 (Kv1.5 [3]): 310 nM
- Selectivity IC50 (Kv1.5)/IC50 (Kv1.3) (Kv1.5 [3]): 1.33

SMILES: COc1c2occc2c(OCCCCOc2ccccc2)c2c(=O)cc(C)oc12 [Compound 37, 9-Methoxy-7-methyl-4-(4-phenoxybutoxy)-5H-furo[3,2-g][1]benzopyran-5-one]
- IC50 (Kv1.5 [3]): 2500 nM
- Selectivity IC50 (Kv1.5)/IC50 (Kv1.3) (Kv1.5 [3]): 1.67

SMILES: O=c1ccc2c(OCCCCOc3ccccc3)cccc2o1 [Compound 42, 5-(4-Phenoxybutoxy)-2H-[1]benzopyran-2-one]
- IC50 (Kv1.5 [3]): 520 nM
- Selectivity IC50 (Kv1.5)/IC50 (Kv1.3) (Kv1.5 [3]): 3.47

SMILES: Cc1cc(=O)c2c(OCCCCOc3ccccc3)c3c(cc2o1)OCO3 [Compound 56, 2-Methyl-6,7-methylendioxy-5-(4-phenoxybutoxy)-4H-[1]benzopyran-4-one]
- Times more potent on Kv1.5 than on Kv1.3 (Kv1.5 [3]): roughly 3 times

SMILES: COc1c2ccoc2c(OCCCCOc2ccccc2)c2oc(=O)cc(C)c12 [Compound 63, 5-Methoxy-4-methyl-8-(4-phenoxybutoxy)psoralen]
- Kinetics of block (mode of Kv1.3 block) (Kv1.3 [2]): open-channel blockers
- IC50 (Kv1.5 [3]): 280 nM
- Times more potent on Kv1.5 than on Kv1.3 (Kv1.5 [3]): roughly 3 times
- Selectivity IC50 (Kv1.5)/IC50 (Kv1.3) (Kv1.5 [3]): 0.88

SMILES: S=c1ccc2c(OCCCCOc3ccccc3)c3ccoc3cc2o1 [Compound 73, 4-(4-Phenoxybutoxy)-7H-furo[3,2-g]chromene-7-thione]
- Kinetics of block (mode of Kv1.3 block) (Kv1.3 [2]): block the C-type inactivated state; also recorded: use-dependence
- IC50 (Kv1.5 [3]): 380 nM
- Times more potent on Kv1.5 than on Kv1.3 (Kv1.5 [3]): 22 times
- Selectivity IC50 (Kv1.5)/IC50 (Kv1.3) (Kv1.5 [3]): 22
- Stability in DMSO stock solutions (HPLC) ([4]; DMSO stock solutions): more than 12 months
- Stability in Ringer solution (HPLC) ([4]; Ringer solution): at least 24 hours

SMILES: O=c1ccc2c(OCCCCOc3ccccc3)c3ccoc3cc2o1 [PAP-1, 5-(4-phenoxybutoxy)psoralen]
- Potency on Kv1.3 in comparison to 5-MOP (Kv1.3 [2]): more than 1000 fold
- IC50 (Kv1.5 [1]): 45 nM
- in vitro or in vivo toxicity [5]: does not display any in vitro or in vivo toxicity
- phototoxicity [6]: not phototoxic
- Effect on oxazolone-induced allergic contact dermatitis [7]: effectively suppresses oxazolone-induced allergic contact dermatitis
- Effect on onset and incidence of type-1 diabetes (type-1 diabetes): significantly delays the onset and reduces the incidence of type-1 diabetes
- Changes in liver enzymes or liver pathology [8]: does not lead to any changes in liver enzymes or liver pathology

SMILES: COc1cc2nc3occc3c(OC)c2cc1OC [kokusagenine, 4,6,7-trimethoxyfuro[2,3-b]quinoline]
- IC50 (Kv1.3 [9]): 10000 nM
